Results from paper PMC10313808, “Lipoxygenase inhibitory synthetic derivatives of methyl gallate regulate gene expressions of COX-2 and cytokines to reduce animal model arthritis” (Scientific Reports, 2023).
Read-outs that look alike come from different tables or passages of the source. Marks after values point to notes of the source that are not given here.

Legend:
[1] = system: ankle joints, liver, spleen, and thymus; experiment: FCA-induced arthritis: histological analysis; assay type: in vivo, Sprague–Dawley (SD) rats; details: FCA rats; for Histology of liver / Histology of spleen: dose not stated; for Histology of thymus: methyl gallate high dose
Protocol: The animals used for the FCA induced arthritis were euthanized at the end of the experiment and the ankle joints were separated from the hind paw and fixed in 10% buffered formalin. Similarly, liver, spleen, and thymus were also dissected carefully and immersed in fixative, and after 24 h each specimen were decalcified in 5% nitric acid, followed by embedding in paraffin wax and 4 µm thickness sections were prepared. These prepared sections were then mounted and stained with hematoxylin and[…] under brightfield compound binocular research microscope at 100X and 400X magnification and inflammation was graded.

[2] = system: FCA-induced arthritis; details: for SGOT / SGPT / ALP: FCA rats, serum; for liver damage: rat, in vivo
Protocol: (§1) Chronic inflammation induced by Freund's Complete Adjuvant contains a suspension of heat-killed Mycobacterium tuberculosis in the vehicle (Chondrex, Labex Corporation). 100 μL of FCA (10 mg/mL) was injected intradermally to the left-hand paw of SD rats[42]. […] Induction of inflammation became chronic by 9–12 days and then rats were divided into 7 groups having 6 rats in each group. Everything possible was done to minimize the suffering of experimental animals. Minimum number of rats only were drafted to generate reliable data. 42 rats were randomly allocated into seven groups (6 × 7).
(§2) Group I (n = 6) served as normal rats that received an equal volume of vehicle control. Group II (n = 6) was arthritic model control treated with vehicle only. Group III (n = 6) was arthritic control which received the diclofenac (10 mg.kg^–1). Groups IV (n = 6), V (n = 6), VI (n = 6) and VII (n = 6) were treated with a low and high dose of methyl gallate (20 mg.kg^–1, 40 mg.kg^–1) and MGSD 1 (1 mg.kg^–1, 10 mg.kg^–1). The drugs were orally administered through oral gavage daily in PBS vehicle for 28 days.
(§3) Blood was drawn from jugular vein[43] and collected in heparinized tubes and used for further analysis. By using Horiba 5-part hematology analyzer the blood parameters like RBC, WBC, neutrophil and hemoglobin were analyzed. Serum parameters were analyzed using Stat Fax autoanalyzer. Serum glutamic pyruvic transaminase (SGPT), serum glutamic oxaloacetic transaminase (SGOT) and alkaline phosphatase (ALP) were determined using standard diagnostic kits (Proton, Accurex).

[3] = system: FCA-induced arthritis; experiment: FCA-induced arthritis: haematological parameters; assay type: in vivo, Sprague–Dawley (SD) rats; details: FCA rats
Protocol: as §1, §2, §3

[4] = system: FCA-induced arthritis; experiment: FCA-induced arthritis: organ index (liver, spleen); assay type: in vivo, Sprague–Dawley (SD) rats; details: FCA rats, end of experiment
Protocol: as §1, §2
At the end of the experiments, animals were euthanized using ketamine injection. The liver and spleen were removed at the end of the experiment and weighed. The index of the organs was expressed as the percentage (%) wet weight of organ versus body weight. The organ indexes were calculated by using the following formula Organindex=Weightoforgang/Bodyweightg×100.

[5] = FCA-induced arthritis: body weight measurement; assay type: in vivo, Sprague–Dawley (SD) rats; details: FCA rats
Protocol: as §1, §2
The bodyweight of the animals was measured every day after the commencement of the experiment till the end (28th day). The weight change was calculated using the formula: Weightchange%=Wt-Wo/[…], where Wt is the weight of the animal at time t
Wo is the weight of the animal on the initial day.

[6] = system: COX-2; experiment: RT-PCR gene expression in hind paw tissue, COX-2; assay type: in vivo, Sprague–Dawley (SD) rats; details: normalized to GAPDH, vs arthritic control
Protocol: This study aimed to gain insight into the mechanism by which methyl gallate and its derivative influence the chronic inflammatory condition in the rat model. In the present study, the inflammatory pathway genes were identified, and their relative expression was quantified (COX-2 and TNF α). RNA was isolated from the hind paw tissue of rats and its concentration was analyzed through Qubit fluorometer. RNA was isolated by Trizol method and agarose gel electrophoresis performed. After the isolation protocol, complementary DNA was synthesized and followed the quantitative PCR with standard conditions. Primers of the targets were designed in Primer3Plus and primer validation was carried out. PCR annealing temperatures were standardized to amplify the specific genes. All the primer pairs were highly specific and resolved into single bands corresponding to amplification products of expected size on 2% agarose gel electrophoresis. Primer specificity was further confirmed by a single distinct peak on the melt curve. The specificity of primer pairs ensures the sequence quality of respective gene templates.
The relative expression of inflammatory genes was identified through quantitative RT-PCR. […] The concentration of RNA isolated was measured in the Qubit fluorometer with the RNA HS assay kit. cDNA was synthesized by reverse transcription using total RNA (2 μg) as a template. […]

With COC(=O)c1cc(O)c(O)c(O)c1 [Methyl gallate] the “Histology of ankle joints” value ([1]; 40 mg.kg^-1) was “synovial space with neutrophil infiltration, although much less than that of arthritic control”, the Histology of liver [1] was “hepatocyte arrays and central sinusoid area were seen to regain normalcy and a few necrotic cells were still visible” and the Histology of spleen [1] was “lesser degree of spleen reversion”. For the same compound, the Histology of thymus [1] was “effective in controlling inflammation-based T-Cell proliferation”, the SGOT ([2]; 20 mg.kg^−1 oral) was 243 ± 13.28 IU/L and the SGPT ([2]; 20 mg.kg^−1 oral) was 94 ± 3.17 IU/L. The SGOT ([2]; 40 mg.kg^−1 oral) was 183 ± 6.38 IU/L, the SGPT ([2]; 40 mg.kg^−1 oral) was 102 ± 2.18 IU/L and the liver damage [2] was “did not show any liver damage”. For the same compound, the Hb ([3]; 20 mg.kg^−1 oral) was 14.2 ± 0.65 g/dL, the Lymphocyte ([3]; 20 mg.kg^−1 oral) was 79 ± 0.79% and the Neutro phil ([3]; 20 mg.kg^−1 oral) was 11.7 ± 0.25%. The RBC ([3]; 20 mg.kg^−1 oral) was 7.47 ± 0.32^# 10^6/mm^3, the WBC ([3]; 20 mg.kg^−1 oral) was 8.3 ± 0.6 10^3/mm^3 and the Hb ([3]; 40 mg.kg^−1 oral) was 14.4 ± 0.74 g/dL. The Lymphocyte ([3]; 40 mg.kg^−1 oral) was 78.6 ± 1.85%, the Neutro phil ([3]; 40 mg.kg^−1 oral) was 12.8 ± 0.4% and the RBC ([3]; 40 mg.kg^−1 oral) was 7.87 ± 0.34^# 10^6/mm^3. For the same compound, the WBC ([3]; 40 mg.kg^−1 oral) was 11.25 ± 0.62^# 10^3/mm^3, the “Organ index (%) Liver” value ([4]; 20 mg.kg^−1 oral) was 3.59 ± 0.03 % and the “Organ index (%) Spleen” value ([4]; 20 mg.kg^−1 oral) was 0.27 ± 0.01%. The “Organ index (%) Liver” value ([4]; 40 mg.kg^−1 oral) was 3.63 ± 0.11 %, the “Organ index (%) Spleen” value ([4]; 40 mg.kg^−1 oral) was 0.28 ± 0.02% and the “Percentage of body weight (Mean ± SEM) 9th day” value ([5]; 20 mg.kg^−1 oral) was 9.43 ± 0.84%. For the same compound, the “Percentage of body weight (Mean ± SEM) 18th day” value ([5]; 20 mg.kg^−1 oral) was 23.61 ± 0.65%, the “Percentage of body weight (Mean ± SEM) 28th day” value ([5]; 20 mg.kg^−1 oral) was 34.17 ± 0.23 % and the “Percentage of body weight (Mean ± SEM) 9th day” value ([5]; 40 mg.kg^−1 oral) was 10.34 ± 0.52%. The “Percentage of body weight (Mean ± SEM) 18th day” value ([5]; 40 mg.kg^−1 oral) was 22.42 ± 0.28%, the “Percentage of body weight (Mean ± SEM) 28th day” value ([5]; 40 mg.kg^−1 oral) was 30.99 ± 0.23 % and the COX-2 gene expression [6] was “significant down regulation of COX-2”.
For O=C(O)COc1cc(C(=O)O)cc(OCC(=O)O)c1OCC(=O)O [MGSD 1, 2,2′,2″-((5-carboxybenzene-1,2,3-triyl)tris(oxy)) tri acetic acid], the “Histology of ankle joints” value ([1]; 10 mg.kg^-1) was “reduced oedema formation and neutrophil infiltration was found very low”, the Histology of liver [1] was “central sinusoid visible and hepatic array of cells normal” and the Histology of spleen [1] was “more efficient in controlling the inflammatory response than methyl gallate and diclofenac”. The Histology of thymus [1] was “more effective than the parent compound in reverting inflammation-based T-Cell proliferation”, the ALP ([2]; 1 mg.kg^−1 oral) was 435 ± 72.16 and the SGOT ([2]; 1 mg.kg^−1 oral) was 162 ± 7.57 IU/L. For the same compound, the SGPT ([2]; 1 mg.kg^−1 oral) was 85 ± 2.60 IU/L, the ALP ([2]; 10 mg.kg^−1 oral) was 309 ± 54.42 and the SGOT ([2]; 10 mg.kg^−1 oral) was 179 ± 3.52 IU/L. For the same compound, the SGPT ([2]; 10 mg.kg^−1 oral) was 82 ± 1.73 IU/L, the liver damage [2] was “did not show any liver damage” and the Hb ([3]; 1 mg.kg^−1 oral) was 14.8 ± 0.42 g/dL. For the same compound, the Lymphocyte ([3]; 1 mg.kg^−1 oral) was 75.8 ± 0.21%, the Neutro phil ([3]; 1 mg.kg^−1 oral) was 11.6 ± 0.76% and the RBC ([3]; 1 mg.kg^−1 oral) was 6.93 ± 0.18^# 10^6/mm^3. For the same compound, the WBC ([3]; 1 mg.kg^−1 oral) was 9.3 ± 0.48^# 10^3/mm^3, the Hb ([3]; 10 mg.kg^−1 oral) was 14.2 ± 0.26 g/dL and the Lymphocyte ([3]; 10 mg.kg^−1 oral) was 75.9 ± 3.44%. The Neutro phil ([3]; 10 mg.kg^−1 oral) was 13.4 ± 0.23%, the RBC ([3]; 10 mg.kg^−1 oral) was 7.075 ± 0.37^# 10^6/mm^3 and the WBC ([3]; 10 mg.kg^−1 oral) was 8.45 ± 0.98* 10^3/mm^3. For the same compound, the “Organ index (%) Liver” value ([4]; 1 mg.kg^−1 oral) was 3.21 ± 0.12%, the “Organ index (%) Spleen” value ([4]; 1 mg.kg^−1 oral) was 0.24 ± 0.00% and the “Organ index (%) Liver” value ([4]; 10 mg.kg^−1 oral) was 3.18 ± 0.48%. The “Organ index (%) Spleen” value ([4]; 10 mg.kg^−1 oral) was 0.22 ± 0.00%, the “Percentage of body weight (Mean ± SEM) 9th day” value ([5]; 1 mg.kg^−1 oral) was 13.40 ± 0.26 % and the “Percentage of body weight (Mean ± SEM) 18th day” value ([5]; 1 mg.kg^−1 oral) was 25.99 ± 51 %. For the same compound, the “Percentage of body weight (Mean ± SEM) 28th day” value ([5]; 1 mg.kg^−1 oral) was 40.15 ± 0.00 %, the “Percentage of body weight (Mean ± SEM) 9th day” value ([5]; 10 mg.kg^−1 oral) was 14.47 ± 1.13 % and the “Percentage of body weight (Mean ± SEM) 18th day” value ([5]; 10 mg.kg^−1 oral) was 30.20 ± 1.57 %. For the same compound, the “Percentage of body weight (Mean ± SEM) 28th day” value ([5]; 10 mg.kg^−1 oral) was 38.44 ± 1.81 % and the COX-2 gene expression [6] was “significant down regulation of COX-2”.
